Results on one compound are retold here after patent US4435583A, “2-Halo-substituted monic acid A useful as antibacterial compounds” (Beecham Group p.l.c., priority 1981, dated 1984).

Common to all, as to type: cell-based
Test [1] concerns M. suipneumoniae HK(2). Description: In vitro anti-mycoplasmal MIC. To be noted: Friis broth, 0.9% agarose, 6 days, 37° C.
For test [2], the system named is M. hyorhinis ATCC 23234. The experiment in a line: In vitro anti-mycoplasmal MIC. To be noted: Mesomycoplasma hyorhinis, ATCC23234, 144 h, Friis broth, 0.9% agarose, 6 days, 37° C.
Test [3] relates to M. bovigenitalium ATCC 14173. The experiment in a line: In vitro anti-mycoplasmal MIC. To be noted: 144 h, Friis broth, 0.9% agarose, 6 days, 37° C.
For test [4], the system named is Bacillus subtilis 6633. Description: MIC against human bacteria. To be noted: nutrient agar, 5% chocolated horse blood, 18 hours, 37° C. As to the method: (§1) The values were determined by serial dilutions in nutrient agar with 5% chocolated horse blood after incubations for 18 hours at 37° C.
Test [5] concerns Corynebacterium xerosis 9755. Description: MIC against human bacteria. The settings on record: nutrient agar, 5% chocolated horse blood, 18 hours, 37° C., read-out: MIC. As to the method: as §1
Test [6] deals with E. coli ESS. Description: MIC against human bacteria. The settings on record: nutrient agar, 5% chocolated horse blood, 18 hours, 37° C. As to the method: as §1
In test [7] the test system is E. coli NCTC 10418. The experiment in a line: MIC against human bacteria. The settings on record: Escherichia coli, NCTC10418, nutrient agar, 5% chocolated horse blood, 18 hours, 37° C., read-out: MIC. As to the method: as §1
In test [8] the test system is Haemophilus influenzae Q1. Description: MIC against human bacteria. The settings on record: Haemophilus influenzae, Q1, 18 h, nutrient agar, 5% chocolated horse blood, 37° C. As to the method: as §1
Test [9] relates to K. aerogenes A. Description: MIC against human bacteria. The settings on record: Klebsiella aerogenes, nutrient agar, 5% chocolated horse blood, 18 hours, 37° C., read-out: MIC. As to the method:
as §1

For test [10], the system named is Neisseria catarrhalis 1502. The experiment in a line: MIC against human bacteria. To be noted: nutrient agar, 5% chocolated horse blood, 18 hours, 37° C. As to the method:
as §1

The test system of test [11] is Past. multocida 1633. Description: MIC against human bacteria. To be noted: nutrient agar, 5% chocolated horse blood, 18 hours, 37° C. As to the method:
as §1

Test [12] relates to Ps. aeruginosa NCTC 10662. Description: MIC against human bacteria. To be noted: Pseudomonas aeruginosa, NCTC10662, nutrient agar, 5% chocolated horse blood, 18 hours, 37° C., read-out: MIC. As to the method:
as §1

Test [13] has as its system Sarcina lutea 8340. Description: MIC against human bacteria. To be noted: Micrococcus luteus, nutrient agar, 5% chocolated horse blood, 18 hours, 37° C., read-out: MIC. As to the method: as §1
Test [14] relates to Staph. aureus Oxford. Description: MIC against human bacteria. The settings on record: nutrient agar, 5% chocolated horse blood, 18 hours, 37° C. As to the method: as §1
The test system of test [15] is Staph. aureus Russell. The experiment in a line: MIC against human bacteria. The settings on record: nutrient agar, 5% chocolated horse blood, 18 hours, 37° C. As to the method: as §1
For test [16], the system named is Strep. 641848-C. The experiment in a line: MIC against human bacteria. To be noted: nutrient agar, 5% chocolated horse blood, 18 hours, 37° C. As to the method:
as §1

In test [17] the test system is Strep. faecalis I. The experiment in a line: MIC against human bacteria. The settings on record: Enterococcus faecalis, nutrient agar, 5% chocolated horse blood, 18 hours, 37° C., read-out: MIC. As to the method:
as §1

The subject of test [18] is Strep. pneumoniae CN33. The experiment in a line: MIC against human bacteria. The settings on record: nutrient agar, 5% chocolated horse blood, 18 hours, 37° C. As to the method: as §1
Test [19] deals with Strep. pyrogenes R80/421-A. Description: MIC against human bacteria. The settings on record: nutrient agar, 5% chocolated horse blood, 18 hours, 37° C. As to the method:
as §1

Values after ≈ are worked out from the molar mass of the structure shown.

As to `CCOC(=O)C(F)=C(C)CC1OCC(CC2OC2C(C)C(C)O)C(O)C1O` [Example 1, Ethyl-4-[5S-(2S,3S-epoxy-5S-hydroxy-4S-methylhexyl)-3R, 4R-dihydroxytetrahydropyran-2S-yl]-2-fluoro-3-methylbut-2(Z)-enoate], the MIC in [1] is 0.5 µg/mL (≈ 1.28 µM); in test [2] it was 0.25 µg/mL (≈ 0.64 µM); in test [3], 0.025 µg/mL (≈ 0.064 µM); in test [4] it was 2.5 µg/mL (≈ 6.4 µM); in test [5], over 100 µg/mL; in [6] it was 5.0 µg/mL (≈ 12.8 µM). The MIC in test [7] was over 100 µg/mL; in [8], 0.1 µg/mL (≈ 0.256 µM); in test [9] it was over 100 µg/mL; in test [10], 0.5 µg/mL (≈ 1.28 µM); in test [11], 1.0 µg/mL (≈ 2.56 µM); in [12], over 100 µg/mL. For the same compound, the MIC in [13] is over 100 µg/mL; in [14], 1.0 µg/mL (≈ 2.56 µM); in [15] it was 1.0 µg/mL (≈ 2.56 µM); in test [16], 5.0 µg/mL (≈ 12.8 µM); in test [17] it was over 100 µg/mL; in test [18] it was 2.5 µg/mL (≈ 6.4 µM). This compound also registered an MIC in [19] of 1.0 µg/mL (≈ 2.56 µM).
